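Briefly, cells in 96-well plates were exposed to five compound concentrations for 48 h, and endpoints were estimated by linear interpolation. GI50 is the concentration that inhibits growth by half. TGI is the concentration that stops growth completely.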
What was measured:
Experiment in all cases: NCI tumour cell line growth inhibition, 48 h
M14 melanoma = test system: M14 melanoma
OVCAR-4 ovarian = test system: OVCAR-4 ovarian
OVCAR-5 ovarian = test system: OVCAR-5 ovarian
LOX IMVI melanoma = test system: LOX IMVI melanoma
U251 CNS = test system: U251 CNS
MDA-MB-435 = test system: MDA-MB-435
HOP-92 NSCLC = test system: HOP-92 NSCLC
UACC-62 melanoma = test system: UACC-62 melanoma
RPMI-8226 leukemia = test system: RPMI-8226 leukemia
UACC-257 melanoma = test system: UACC-257 melanoma

| Structure (SMILES) | TGI (M14 melanoma) [µM] | TGI (OVCAR-4 ovarian) [µM] | TGI (OVCAR-5 ovarian) [µM] | TGI (LOX IMVI melanoma) [µM] | TGI (U251 CNS) [µM] | TGI (MDA-MB-435) [µM] | TGI (HOP-92 NSCLC) [µM] | TGI (UACC-62 melanoma) [µM] | TGI (RPMI-8226 leukemia) [µM] | TGI (UACC-257 melanoma) [µM] | GI50 (M14 melanoma) [µM] | GI50 (OVCAR-4 ovarian) [µM] | GI50 (HOP-92 NSCLC) [µM] | GI50 (OVCAR-5 ovarian) [µM] | GI50 (LOX IMVI melanoma) [µM] | GI50 (U251 CNS) [µM] | GI50 (UACC-62 melanoma) [µM] | GI50 (RPMI-8226 leukemia) [µM] |
| --- | --- | --- | --- | --- | --- | --- | --- | --- | --- | --- | --- | --- | --- | --- | --- | --- | --- | --- |
| CSc1cc(Cl)c(C)cc1S(=O)(=O)NC(=O)NNc1ccccn1 | > 100 | > 100 | > 100 | > 100 | > 100 | > 100 | – | – | – | – | – | – | – | – | – | – | – | – |
| Cc1ccc(NNc2cc(=O)[nH]c(=O)[nH]2)cc1Cl | 26.9 | 28.5 | > 100 | 18.4 | 30 | – | 27.9 | > 100 | 49.2 | 32 | – | – | – | – | – | – | – | – |
| C=C(Br)C(Cl)(CBr)CCC(Br)C(C)(C)Cl (centres undefined) | > 10 | > 10 | > 10 | – | > 10 | > 10 | > 10 | > 10 | > 10 | – | – | – | – | – | – | – | – | – |
| CN(C)CCCNC(=O)CNC(=O)c1cc(NC(=O)c2cc(NC(=O)c3cc(NC(=O)CCNC(=O)c4cc(NC(=O)c5cc(NC(=O)c6nccn6C)cn5C)cn4C)cn3C)cn2C)cn1C | > 100 | > 100 | > 100 | > 100 | > 100 | > 100 | > 100 | – | > 100 | > 100 | – | – | – | – | – | – | – | – |
| CCCC(=O)N[C@@H](Cc1cc(I)c(O)c(I)c1)C(=O)NCCCNCCCCNCCCNC(=O)[C@@H](N)CCCN=C(N)N | > 100 | – | – | > 100 | > 100 | – | – | > 100 | > 100 | > 100 | – | – | – | – | – | – | – | – |
| C/C(=N/NC(=S)N(Cc1ccccn1)Cc1ccccn1)c1cnccn1 | > 35.9 | 8.14 | 32.6 | 0.447 | > 47.9 | 35.6 | > 37.6 | – | > 37.4 | 8.61 | – | – | – | – | – | – | – | – |
| CC1CSc2nc3[nH]c(=S)[nH]c3c(=O)n2C1 (centres undefined) | – | > 100 | > 100 | > 100 | > 100 | > 100 | – | > 100 | > 100 | > 100 | – | – | – | – | – | – | – | – |
| C/C=C/OC1C(C2COC(C)(C)O2)OC2OC(C)(C)OC21 (centres undefined) | > 100 | > 100 | > 100 | > 100 | > 100 | > 100 | > 100 | – | > 100 | > 100 | – | – | – | – | – | – | – | – |
| CC(=O)/C=C/c1c[nH]c(=O)[nH]c1=O | – | 883 | 618 | 354 | 503 | – | 102 | 574 | 679 | 641 | – | – | – | – | – | – | – | – |
| O=C(CN=C(CN(c1ccccc1)c1ccccc1)Oc1c([N+](=O)[O-])cc([N+](=O)[O-])cc1[N+](=O)[O-])N1CCNCC1 | > 100 | > 100 | > 100 | – | > 100 | > 100 | > 100 | > 100 | > 100 | > 100 | – | – | – | – | – | – | – | – |
| Cc1ccc(S(=O)(=O)OCC23CCC(C4CC42)C2CC23)cc1 (centres undefined) | > 100 | > 100 | > 100 | > 100 | > 100 | – | > 100 | > 100 | > 100 | 89.1 | – | – | – | – | – | – | – | – |
| CCOC(=O)c1ccc(Nc2nc3ccc(C(F)(F)F)cc3nc2-c2ccccc2)cc1 | > 100 | – | > 100 | > 100 | > 100 | > 100 | – | 74.5 | > 100 | > 100 | – | – | – | – | – | – | – | – |
| O/N=C1\CC2(N3CCOCC3)CCC1(Cc1ccccc1)CC2 | > 100 | 84.8 | > 100 | > 100 | 38.3 | > 100 | 89.2 | – | – | > 100 | – | – | – | – | – | – | – | – |
| COc1cc2cnc3c(c2cc1OC)Cc1cc2c(cc1-3)OCO2 | > 100 | > 62.8 | 77.9 | > 100 | 0.517 | – | > 100 | 35.1 | 85.7 | – | < 0.0113 | 13.6 | > 93.6 | 35.5 | 0.576 | < 0.01 | < 0.01 | < 0.01 |
| O=C(O)c1cc2c(cc1S(=O)(=O)O)C1C(C3C2C2(Cl)C(Cl)=C(Cl)C3(Cl)C2(Cl)Cl)C2(Cl)C(Cl)=C(Cl)C1(Cl)C2(Cl)Cl (centres undefined) | > 100 | > 100 | 70 | – | > 100 | > 100 | 85.2 | 46.9 | > 100 | > 100 | – | – | – | – | – | – | – | – |
| Cc1cc2nc3c(C(O)CO)nn(-c4ccccc4)c3nc2cc1C (centres undefined) | > 100 | 53.4 | 44.9 | 66.3 | 38.4 | 47.9 | 45.4 | – | > 100 | 48.1 | – | – | – | – | – | – | – | – |
| FC(F)(F)C1(C(F)(F)F)OC(Cl)(Cl)C(Cl)(Cl)O1 | > 10 | > 10 | > 10 | > 10 | > 10 | > 10 | > 10 | > 10 | – | > 10 | – | – | – | – | – | – | – | – |
